Where two headings read alike, the source gives them in different places.
Experiments:
Guinea Pig Ileum = experiment: In vitro evaluation of anticholinergic activity in the isolated guinea pig ileum; set-up: species or system guinea pig (male Hartley); settings: Cavia porcellus, read-out: Anticholinergic Inhibition of Guinea Pig Ileum (% inhibition at 4 mg/L)
Method: The following examples describe the in vitro evaluation of anticholinergic activity in the isolated guinea pig ileum. Fasted, male Hartley guinea pigs (300-400 g) were killed by a blow to the head. […] One end of the ileal strip was impaled onto a platinum wire electrode; and the other end was tied to a stationary glass rod. Basal tension was set at 0.1-0.3 g and peak developed tension in response to field stimulation (100-150 V, 10 msec pulse duration, 0.2 Hz) was measured with a tension transducer.

[1] = test system: ventricular arrhythmias induced by ouabain (Ouabain dog); experiment: Antiarrhythmic activity in the Ouabain dog model (i.v. infusion); type: in vivo; settings: Canis lupus familiaris, read-out: Antiarrhythmic ED in Ouabain Dog
Method: The following examples describe the pharmacological evaluation of the compounds in accordance with the present invention. In particular, these examples describe the evaluation of antiarrhythmic activity in the Oubain dog model. […] The test compound was infused intravenously in saline at a rate of about 0.3 to about 5 mg/kg/min until normal sinus rhythm or toxicity occurred. Normal sinus rhythm was defined as 90-100% normal complexes over a 5 minute period.

[2] = test system: ventricular arrhythmias induced by two-stage ligation of the left anterior descending coronary artery (Harris dog); experiment: Antiarrhythmic activity by coronary ligation in the Harris dog model (i.v. infusion); type: in vivo, dog (adult mongrel); settings: Canis lupus familiaris, read-out: Antiarrhythmic ED in Harris Dog
Text: The following examples describe the pharmacological evaluation of the compounds made in accordance with the present invention. In particular, these examples describe the evaluation of antiarrhythmic activity by coronary ligation in the well known Harris dog model. Ventricular arrhythmias were induced in adult mongrel dogs (10-15 kg) of either sex by two-stage ligation of the left anterior descending coronary artery. […] The test compound in saline was infused intravenously at a cumulative rate of […] to 1.2 mg/kg/min (base) unitl normal sinus rhythm or toxicity occurred. Normal sinus rhythm was defined as 90-100% normal complexes over a 5 min period.

cardiac cells = settings: cited from earlier work
patients = settings: cited from earlier work
[3] = 4 mg/L, inhibition of field-stimulated contractile tension
[4] = Ouabain dog, IV infusion, ED is the effective dose required to sustain normal sinus rhythm
[5] = Harris dog, IV infusion, ED is the effective dose required to sustain normal sinus rhythm
[6] = administered to patients for the management of arrhythmias

Compound	inhibition at 4 µg/mL (Guinea Pig Ileum; [3]) [%]	minimal effective dose [1, 4] [mg/kg]	minimal effective dose [2, 5] [mg/kg]	anticholinergic activity (in words, background) (cardiac cells)	effect on impulse formation, conduction velocity and refractory period of cardiac cells (cardiac cells)	adverse side-effects in patients (patients; human, in vivo)	inhibition at 4 µg/mL (Guinea Pig Ileum) [%]	minimal effective dose ([1]; iv) [mg/kg]	minimal effective dose ([2]; iv) [mg/kg]	adverse side-effects in patients (patients; [6])	antiarrhythmic effectiveness (in words, background) (patients; human, in vivo)
O=C(Nc1cc(CN2CCCC2)c(O)c(CN2CCCC2)c1)c1ccc(Cl)cc1 [IV, N--(4-chlorobenzoyl)-3,5,-bis(N--pyrrolidinylmethyl)-4-hydroxyaniline]	49	1.5	7								
Cc1ccc(C(=O)Nc2cc(CN3CCCC3)c(O)c(CN3CCCC3)c2)cc1 [V, N--(4-methylbenzoyl)-3,5,-bis(N--pyrrolidinylmethyl)-4-hydroxyaniline]	22	3	15								
O=C(Nc1cc(CN2CCCC2)c(O)c(CN2CCCC2)c1)c1ccc(C(F)(F)F)cc1 [XIII, N--(4-trifluoromethylbenzoyl)-3,5,-bis(N--pyrrolidinylmethyl)-4-hydroxyaniline]	43	5.25	9								
C=C[C@H]1C[N@@]2CC[C@H]1C[C@@H]2[C@@H](O)c1ccnc2ccc(OC)cc12 (stereo in doubt) [Quinidine, 6-methoxy-α-(5'-vinyl-2-quinuclidinyl)-4-quindinemethanol]	62		10.1	indirect anticholinergic actions	depress impulse formation, slow conduction velocity, and increase the duration of the refractory period of cardiac cells	cardiotoxicity, diarrhea, nausea, vomiting, fever, hypertension and depression of myocardial contractility					
O=C(Nc1cc(CN2CCCC2)c(O)c(CN2CCCC2)c1)c1ccccc1 [Example III, N-benzoyl-3,5-bis(N-pyrrolidinylmethyl)-4-hydroxyaniline]	35	3.4	5								
CC(C)N(CCC(C(N)=O)(c1ccccc1)c1ccccn1)C(C)C (stereo not drawn) [Disopyramide, α[2-(diisopropylamino)-ethyl]α-phenol-2-pyridineacetamide, reference compound]				indirect anticholinergic actions	depress impulse formation, slow conduction velocity, and increase the duration of the refractory period of cardiac cells		81	4.4	6.8	dryness of the mouth, blurred vision, constipation, and urinary retention, and depression of myocardial contractility	
Oc1c(CN2CCCC2)cc(Nc2ncnc3ccccc23)cc1CN1CCCC1 [Changrolin, 4-[3',5'-bis[N-pyrrolidinylmethyl]-4'-hydroxyanilino]quinazoline, reference compound]	43	5.5	10.3	substantial anticholinergic activity						skin discoloration in some patients	effective antiarrhythmic agent
O=C(c1ccccc1)c1cc(CN2CCCC2)c(O)c(CN2CCCC2)c1 [Example II, 4-hydroxy-3,5-bis(pyrrolidinylmethyl)benzophenone]	9	1.9	11								
Oc1c(CN2CCCC2)cc(OCc2ccccc2)cc1CN1CCCC1 [Example I, 4-benzyloxy-2,6-bis(pyrrolidinylmethyl)phenol]	62	1.5	4.5								
